Assay results taken from paper PMC5962642, “Dynamic imaging of adaptive stress response pathway activation for prediction of drug induced liver injury” (Archives of Toxicology, 2018).
“Also recorded” adds a separate entry of the source.

Key:
[1] = system: Srxn1-GFP (oxidative stress); assay: HepG2 Srxn1-GFP BAC reporter, live cell confocal imaging (oxidative stress); format: cell-based, Human; conditions: HepG2 BAC-GFP, 24 h live imaging, 1-100 C-max
Experimental: (§1) Human hepatoma HepG2 cells were acquired from ATCC (clone HB8065). HepG2 Srxn1, DDIT3 (CHOP), CDKN1A (p21) and ICAM1 BAC GFP reporter cell lines were previously established and characterized (Wink et al. [2017]). HepG2 BAC GFP reporters were maintained and exposed to drugs in DMEM high glucose supplemented with 10% (v/v) FBS, 25 U/mL penicillin and 25 µg/mL streptomycin. The cell lines were used between passage 5 and 25. For live cell imaging, the cells were seeded in Greiner black µ-clear 384 wells plates, at 8000 cells per well.
Accumulation of GFP levels, propodium iodide (PI) and Hoechst staining was monitored using a Nikon TiE2000 confocal laser microscope (lasers 540, 488 and 408 nm), equipped with an automated stage and perfect focus system at 37 °C with humidified atmosphere and 5% CO2/air mixture. All imaging was similar as previously described^5. Each 384-well plate contained one reporter cell line, which was exposed to all the compounds used in the screen at one certain concentration (1, 5, 10, 50 or 100 Cmax); for each concentration at least two replicates were imaged per reporter cell line. For the ICAM1-GFP reporter experiments, cells were first exposed for 8 h to compound only; next, TNFα was added to all wells, up to a final concentration of 10 ng/mL. Directly after TNFα treatment the live cell imaging was started.
(§2) Quantitative image analysis was performed with CellProfiler version 2.1.1 (Kamentsky et al. [2011]) with an in house developed CellProfiler module implementing the watershed masked algorithm for segmentation (Yan and Verbeek [2012]; Wink et al. [2017]). Image analysis results were stored as HDF5 files. Data analysis, quality control and graphics were performed using the in house developed R package h5CellProfiler (manuscript in preparation). For each reporter hourly intensity levels of the GFP signal, the nuclear Hoechst33342 intensity levels and at 24 h the PI staining were measured at the single cell level. In addition, cell numbers, nuclei size and cell motility were measured.
(§3) GFP intensity cell population means were calculated. In addition, for each plate the cell population mean GFP intensity of the DMSO treated cells was calculated to determine background control values. Per plate, the single cells that had values above the 2X mean, 3X mean were counted resulting in GFP positive fraction measures. For ICAM1, the background control values consisted of DMSO conditions treated with TNFα, and the single cells with values above, as well as below background values were counted. Due to the non-symmetric distribution of ICAM1 cell population GFP intensities, the interquartile range (IQR) was used to count the number of cells 1.5, 2 and 3 times above and below the TNFα IQR control values (Supplemental Fig. 1).
The maximum values over time of the scaled intensity levels and positive GFP fractions were selected for the concentration response curves. These values were fit to a four parameter log-logistic model using the drc package (Ritz et al. [2015]). BMC values were calculated as the concentration at which + 0.25 (and − 0.25 for ICAM1) absolute increase from the initial response values occurred (Fig. 5a).

[2] = system: CHOP-GFP (ER stress/UPR response); assay: HepG2 CHOP-GFP BAC reporter, live cell confocal imaging (ER stress/UPR); format: cell-based, Human; conditions: HepG2 BAC-GFP, 24 h live imaging, 1-100 C-max
Experimental: Image analysis results were stored as HDF5 files. […] For each reporter hourly intensity levels of the GFP signal, the nuclear Hoechst33342 intensity levels and at 24 h the PI staining were measured at the single cell level. In addition, cell numbers, nuclei size and cell motility were measured.
The maximum values over time of the scaled intensity levels and positive GFP fractions were selected for the concentration response curves. […] BMC values were calculated as the concentration at which + 0.25 (and − 0.25 for ICAM1) absolute increase from the initial response values occurred (Fig. 5a).

[3] = system: p21-GFP (p53-mediated DNA damage-related response); assay: HepG2 p21-GFP BAC reporter, live cell confocal imaging (DNA damage); format: cell-based, Human; conditions: 24 h live imaging, 1-100 C-max
Experimental: as §1
Accumulation of GFP levels, propodium iodide (PI) and Hoechst staining was monitored using a Nikon TiE2000 confocal laser microscope (lasers 540, 488 and 408 nm), equipped with an automated stage and perfect focus system at 37 °C with humidified atmosphere and 5% CO2/air mixture. All imaging was similar as previously described^5. […]
as §2, with “Image analysis results were stored as HDF5 files. Data analysis, quality control and graphics were performed using the in house developed R package h5CellProfiler (manuscript in preparation).” left out
as §3, with “Due to the non-symmetric distribution of ICAM1 cell population GFP intensities, the interquartile range (IQR) was used to count the number of cells 1.5, 2 and 3 times above and below the TNFα IQR control values (Supplemental Fig. 1).” left out

[4] = system: ICAM1-GFP (NF-κB-mediated inflammatory signaling); assay: HepG2 ICAM1-GFP BAC reporter, TNFα-induced, live cell confocal imaging; format: cell-based, Human; conditions: for modulation of TNFα-induced ICAM1-GFP response: HepG2 BAC-GFP, 8 h compound then TNFα 10 ng/mL, 24 h live imaging, 1-100 C-max
Experimental: Human hepatoma HepG2 cells were acquired from ATCC (clone HB8065). HepG2 Srxn1, DDIT3 (CHOP), CDKN1A (p21) and ICAM1 BAC GFP reporter cell lines were previously established and characterized (Wink et al. [2017]). […] The cell lines were used between passage 5 and 25. For live cell imaging, the cells were seeded in Greiner black μ-clear 384 wells plates, at 8000 cells per well. […] All imaging was similar as previously described^5. […] Directly after TNFα treatment the live cell imaging was started. Quantitative image analysis was performed with CellProfiler version 2.1.1 ([…] et al. [2011]) with an in house developed CellProfiler module implementing the watershed masked algorithm for segmentation (Yan and Verbeek [2012]; Wink et al. [2017]). Image analysis results were stored as HDF5 files. Data analysis, quality control and graphics were performed using the in house developed R package h5CellProfiler (manuscript in preparation). For each reporter hourly intensity levels of the GFP signal, the nuclear Hoechst33342 intensity levels and at 24 h the PI staining were measured at the single cell level. In addition, cell numbers, nuclei size and cell motility were measured. GFP intensity cell population means were calculated. In addition, for each plate the cell population mean GFP intensity of the DMSO treated cells was calculated to determine background control values. Per plate, the single cells that had values above the 2X mean, 3X mean were counted resulting in GFP positive fraction measures. For ICAM1, the background control values consisted of DMSO conditions treated with TNFα, and the single cells with values above, as well as below background values were counted. […] Linear regression was applied with respect to time to quantify treatment effects on a plate-to-plate basis to quantify cell speed, nuclear size, Hoechst nuclear intensity and cell numbers. […] The maximum values over time of the scaled intensity levels and positive GFP fractions were selected for the concentration response curves. These values were fit to a four parameter log-logistic model using the drc package (Ritz et al. [2015]). BMC values were calculated as the concentration at which + 0.25 (and - 0.25 for ICAM1) absolute increase from the initial response values occurred (Fig. 5a).

[5] = C-max obtained from FDA or literature; ref per compound (FDA, Dailymed, Xu, O’Brien, Khetani, Regenthal, Gustafsson, Dawson, Ogutu, Patel, Schmidt, Ravic, Keisu, Hu, Wagner); cited from earlier work
[6] = ref Chen et al. [2016], cited from earlier work
[7] = ref livertox.nih.gov database; cited from earlier work

## Sc1ncnc2nc[nH]c12 [Mercaptopurine]
[1]
  Srxn1-GFP reporter response: increased
[1]; listed as mercaptopurine
  Srxn1-GFP reporter response: relatively strong activation; also recorded: mild Srxn1-GFP and ICAM1-GFP activation
[2]
  CHOP-GFP reporter response: increased
[3]
  p21-GFP reporter response: increased
[4]
  modulation of TNFα-induced ICAM1-GFP response: increased
[4]; listed as mercaptopurine
  modulation of TNFα-induced ICAM1-GFP response: relatively strong activation; also recorded: mild Srxn1-GFP and ICAM1-GFP activation
[4]; peak response, concentration series 1-100 C-max
  point-of-departure (PoD) for ICAM-GFP response relative to onset of SRXN1-GFP response: at a lower C-max
[5]
  Cmax: 480 nM
[6]; FDA DILI labeling
  DILI con. (DILI-concern labeling): Most-DC
[6]; FDA labeling in eight classes of hepatotoxicity
  Hepa. (hepatotoxicity class): 8
[7]
  Metab (metabolic potential): YES
